# Experimental data from publication PMC12521730, “Quantitative dual-isotope preclinical SPECT/CT imaging and biodistribution of the mercury-197m/g theranostic pair with [^197m/gHg]HgCl2 and a [^197m/gHg]Hg-tetrathiol complex as a platform for radiopharmaceutical development” (EJNMMI Radiopharmacy and Chemistry, 2025).
# Experiment: Ex vivo biodistribution (gamma counter)
# Type: in vivo, healthy male C57BL/6 mice
# Settings: 2 h post administration
# Experimental: For animal injection, the tracer was prepared at high molar activity. Radiolabeling of H4Tetrathiol (10^–2 M in DMSO; 40 μL for imaging, 20 μL for bioD) (or DMSO, for [^197m/gHg]HgCl2 mice) with [^197m/gHg]HgCl2 (imaging: 26.7 MBq total m + g, 62 μL; bioD: 13.04 MBq total m + g, 31 μL) was performed in a mixture of ammonium acetate buffer (1 M; pH 7; 198 μL for imaging or 149 μL for bioD) and 6 M NaOH (72 μL or 38 μL required to achieve a pH of 7.5 after addition of activity, for imaging or BioD labeling, respectively). The reaction was allowed to stand for 1 h at 37 °C and quantitative (> 99%) non-isolated percentage radiochemical yield (%RCY) was confirmed via the iTLC methods mentioned above. Further, 100 µL of the reaction was diluted with 50 µL of PBS Tween-20 (0.01 M sodium phosphate, 0.15 M NaCl, 0.05% Tween-20) for imaging mice, or 50 µL of the reaction was diluted with 100 µL of PBS Tween-20 for BioD mice. The tracers were prepared immediately before injection to avoid radiolysis and minimize the tracer loss to any surfaces due to its lipophilicity. The injected doses of each isomer, ^197mHg and ^197gHg, were quantified by measuring an aliquot of known volume of each tracer preparation via HPGe gamma spectroscopy and decay corrected for time of injection using the Eqs. (1) and (2).
# The study was conducted in compliance with the guidelines set by the Canadian Council on Animal Care (CCAC) and approved by the Animal Care Committee (ACC) at the University of British Columbia (A20-0132). A total of eight healthy male C57BL/6 mice weighing approximately 30 g for group 1 and 25 g for group 2 were used in the study. The mice were divided into two experimental groups: group 1 (n = 4) received free [^197m/gHg]HgCl2, while group 2 (n = 4) received [^197m/gHg]Hg-Tetrathiol. Within each group, one mouse was allocated for imaging, while the rest were designated for ex vivo biodistribution analysis. For SPECT imaging, the designated mice were anesthetized using isoflurane via a precision vaporizer. […] Once anesthetized, each imaging mouse received an intravenous (IV) injection via the lateral tail vein of 150 μL of [^197m/gHg]HgCl2 (0.492 MBq ^197mHg + 3.171 MBq ^197gHg) or [^197m/gHg]Hg-Tetrathiol (0.899 MBq ^197mHg + 4.230 MBq ^197gHg) in PBS Tween-20 (0.01 M Na Phosphate, 0.15 M NaCl, 0.05% Tween-20).
# Mice received an IV injection of [^197m/gHg]HgCl2 (0.275 MBq ^197mHg + 1.758 MBq ^197gHg, 150 μL) or [^197m/gHg]Hg-Tetrathiol (0.384 MBq ^197mHg + 1.733 MBq ^197gHg, 150 μL) (n = 3 per group) via the lateral tail vein using a Tailveiner restrainer. After the injection, the mice were returned to their experimental cages and allowed unrestricted movement. Biodistribution studies were conducted 2 h after administration. Mice were humanely euthanized with an overdose of isoflurane followed by cardiac puncture to collect blood pool activity. The organs of interest were fully extracted, cleaned of blood without rinsing, weighed, and analysed for radioactivity using a calibrated gamma counter with the 55–93 keV energy window for ^197gHg and the 110–160 keV energy window for ^197mHg (Packard Cobra II, Perkin Elmer, Waltham, MA, USA). The stomach and intestines were carefully cleaned prior to analysis to remove residual contents. For tissues and fluids that could not be fully removed (muscle, blood and bone) activity values were extrapolated based on standardised organ weights for age- and sex-matched mice tables to ensure accurate normalization (Davies and Morris [1993]; Foster et al. [2014]). The stomach and whole intestines were cleaned before analysis. The radioactivity measurements were decay corrected for time of injection using the Eqs. (1) and (2). The results are reported as the percentage of the injected activity per gram of tissue (%IA/g) and percentage of the injected activity per tissue (%IA/organ).
structure (smiles),measurement,setting,value
O=C(CC[S-])OCC(COC(=O)CC[S-])(COC(=O)CC[S-])COC(=O)CC[S-].[Hg+2] [[^197m/gHg]Hg-Tetrathiol],Animal 4 (%IA/g) g: heart,Hg-197g,0.72 %IA/g
same,Animal 4 (%IA/g) g: kidneys,Hg-197g,2.58 %IA/g
same,Animal 4 (%IA/g) g: large intestine,Hg-197g,0.04 %IA/g
same,Animal 4 (%IA/g) g: liver,Hg-197g,460.16 %IA/g
same,Animal 4 (%IA/g) g: lungs,Hg-197g,6.68 %IA/g
same,Animal 4 (%IA/g) g: muscle,Hg-197g,0.02 %IA/g
same,Animal 4 (%IA/g) g: pancreas,Hg-197g,0.05 %IA/g
same,Animal 4 (%IA/g) g: small intestine,Hg-197g,0.13 %IA/g
same,Animal 4 (%IA/g) g: spleen,Hg-197g,73.76 %IA/g
same,Animal 4 (%IA/g) g: stomach,Hg-197g,0.12 %IA/g
same,Animal 4 (%IA/g) g: tail,Hg-197g,5.66 %IA/g
same,Animal 4 (%IA/g) g: urine,Hg-197g,0.03 %IA/g
same,Average (%IA/Organ): bladder,Hg-197g,0.00 %IA/Organ
same,Average (%IA/Organ): blood,Hg-197g,0.16 %IA/Organ
same,Average (%IA/Organ): bone,Hg-197g,2.70 %IA/Organ
same,Average (%IA/Organ): brain,Hg-197g,0.01 %IA/Organ
same,Average (%IA/Organ): feces,Hg-197g,0.00 %IA/Organ
same,Average (%IA/Organ): heart,Hg-197g,0.09 %IA/Organ
same,Average (%IA/Organ): kidneys,Hg-197g,1.13 %IA/Organ
same,Average (%IA/Organ): large intestine,Hg-197g,0.02 %IA/Organ
same,Average (%IA/Organ): lungs,Hg-197g,0.97 %IA/Organ
same,Average (%IA/Organ): muscle,Hg-197g,0.19 %IA/Organ
same,Average (%IA/Organ): pancreas,Hg-197g,0.01 %IA/Organ
same,Average (%IA/Organ): small intestine,Hg-197g,0.02 %IA/Organ
same,Average (%IA/Organ): spleen,Hg-197g,4.17 %IA/Organ
same,Average (%IA/Organ): stomach,Hg-197g,0.04 %IA/Organ
same,Average (%IA/Organ): tail,Hg-197g,1.05 %IA/Organ
same,Average (%IA/Organ): urine,Hg-197g,0.00 %IA/Organ
same,Average Hg-197g (%IA/g): bladder,Hg-197g,0.049 %IA/g
same,Average Hg-197g (%IA/g): blood,Hg-197g,0.11 %IA/g
same,Average Hg-197g (%IA/g): bone,Hg-197g,1.42 %IA/g
same,Average Hg-197g (%IA/g): brain,Hg-197g,0.025 %IA/g
same,Average Hg-197g (%IA/g): feces,Hg-197g,0.023 %IA/g
same,Average Hg-197g (%IA/g): heart,Hg-197g,0.71 %IA/g
same,Average Hg-197g (%IA/g): kidneys,Hg-197g,2.96 %IA/g
same,Average Hg-197g (%IA/g): large intestine,Hg-197g,0.079 %IA/g
same,Average Hg-197g (%IA/g): liver,Hg-197g,202.37 %IA/g
same,Average Hg-197g (%IA/g): lungs,Hg-197g,7.10 %IA/g
same,Average Hg-197g (%IA/g): muscle,Hg-197g,0.017 %IA/g
same,Average Hg-197g (%IA/g): pancreas,Hg-197g,0.058 %IA/g
same,Average Hg-197g (%IA/g): small intestine,Hg-197g,0.11 %IA/g
same,Average Hg-197g (%IA/g): spleen,Hg-197g,64.43 %IA/g
same,Average Hg-197g (%IA/g): stomach,Hg-197g,0.37 %IA/g
same,Average Hg-197g (%IA/g): tail,Hg-197g,2.18 %IA/g
same,Average Hg-197g (%IA/g): urine,Hg-197g,0.029 %IA/g
same,Animal 1 (%IA/g) m: bladder,Hg-197m,0.05 %IA/g
same,Animal 1 (%IA/g) m: blood,Hg-197m,0.10 %IA/g
same,Animal 1 (%IA/g) m: bone,Hg-197m,2.09 %IA/g
same,Animal 1 (%IA/g) m: brain,Hg-197m,0.04 %IA/g
same,Animal 1 (%IA/g) m: feces,Hg-197m,0.04 %IA/g
same,Animal 1 (%IA/g) m: heart,Hg-197m,0.47 %IA/g
same,Animal 1 (%IA/g) m: kidneys,Hg-197m,5.53 %IA/g
same,Animal 1 (%IA/g) m: large intestine,Hg-197m,0.14 %IA/g
same,Animal 1 (%IA/g) m: lungs,Hg-197m,9.10 %IA/g
same,Animal 1 (%IA/g) m: muscle,Hg-197m,0.01 %IA/g
same,Animal 1 (%IA/g) m: pancreas,Hg-197m,0.06 %IA/g
same,Animal 1 (%IA/g) m: small intestine,Hg-197m,0.16 %IA/g
same,Animal 1 (%IA/g) m: spleen,Hg-197m,74.83 %IA/g
same,Animal 1 (%IA/g) m: stomach,Hg-197m,0.19 %IA/g
same,Animal 1 (%IA/g) m: tail,Hg-197m,1.72 %IA/g
same,Animal 1 (%IA/g) m: urine,Hg-197m,0.03 %IA/g
same,Animal 2 (%IA/g) m: bladder,Hg-197m,0.02 %IA/g
same,Animal 2 (%IA/g) m: blood,Hg-197m,0.13 %IA/g
same,Animal 2 (%IA/g) m: bone,Hg-197m,1.62 %IA/g
same,Animal 2 (%IA/g) m: brain,Hg-197m,0.02 %IA/g
same,Animal 2 (%IA/g) m: feces,Hg-197m,0.05 %IA/g
same,Animal 2 (%IA/g) m: heart,Hg-197m,0.59 %IA/g
same,Animal 2 (%IA/g) m: kidneys,Hg-197m,2.35 %IA/g
same,Animal 2 (%IA/g) m: large intestine,Hg-197m,0.05 %IA/g
same,Animal 2 (%IA/g) m: lungs,Hg-197m,7.04 %IA/g
same,Animal 2 (%IA/g) m: muscle,Hg-197m,0.02 %IA/g
same,Animal 2 (%IA/g) m: pancreas,Hg-197m,0.04 %IA/g
same,Animal 2 (%IA/g) m: small intestine,Hg-197m,0.08 %IA/g
same,Animal 2 (%IA/g) m: spleen,Hg-197m,79.95 %IA/g
same,Animal 2 (%IA/g) m: stomach,Hg-197m,0.37 %IA/g
same,Animal 2 (%IA/g) m: tail,Hg-197m,1.39 %IA/g
same,Animal 2 (%IA/g) m: urine,Hg-197m,0.03 %IA/g
same,Animal 3 (%IA/g) m: bladder,Hg-197m,0.04 %IA/g
same,Animal 3 (%IA/g) m: blood,Hg-197m,0.15 %IA/g
same,Animal 3 (%IA/g) m: bone,Hg-197m,1.38 %IA/g
same,Animal 3 (%IA/g) m: brain,Hg-197m,0.04 %IA/g
same,Animal 3 (%IA/g) m: feces,Hg-197m,0.01 %IA/g
same,Animal 3 (%IA/g) m: heart,Hg-197m,0.70 %IA/g
same,Animal 3 (%IA/g) m: kidneys,Hg-197m,3.71 %IA/g
same,Animal 3 (%IA/g) m: large intestine,Hg-197m,0.12 %IA/g
same,Animal 3 (%IA/g) m: lungs,Hg-197m,9.69 %IA/g
same,Animal 3 (%IA/g) m: muscle,Hg-197m,0.02 %IA/g
same,Animal 3 (%IA/g) m: pancreas,Hg-197m,0.09 %IA/g
same,Animal 3 (%IA/g) m: small intestine,Hg-197m,0.10 %IA/g
same,Animal 3 (%IA/g) m: spleen,Hg-197m,108.27 %IA/g
same,Animal 3 (%IA/g) m: stomach,Hg-197m,1.02 %IA/g
same,Animal 3 (%IA/g) m: tail,Hg-197m,0.66 %IA/g
same,Animal 3 (%IA/g) m: urine,Hg-197m,0.03 %IA/g
same,Animal 4 (%IA/g) m: bladder,Hg-197m,0.07 %IA/g
same,Animal 4 (%IA/g) m: blood,Hg-197m,0.12 %IA/g
same,Animal 4 (%IA/g) m: bone,Hg-197m,1.62 %IA/g
same,Animal 4 (%IA/g) m: brain,Hg-197m,0.02 %IA/g
same,Animal 4 (%IA/g) m: feces,Hg-197m,0.01 %IA/g
same,Animal 4 (%IA/g) m: heart,Hg-197m,0.64 %IA/g
same,Animal 4 (%IA/g) m: kidneys,Hg-197m,3.03 %IA/g
same,Animal 4 (%IA/g) m: large intestine,Hg-197m,0.05 %IA/g
same,Animal 4 (%IA/g) m: lungs,Hg-197m,7.69 %IA/g
same,Animal 4 (%IA/g) m: muscle,Hg-197m,0.02 %IA/g
same,Animal 4 (%IA/g) m: pancreas,Hg-197m,0.05 %IA/g
same,Animal 4 (%IA/g) m: small intestine,Hg-197m,0.15 %IA/g
same,Animal 4 (%IA/g) m: spleen,Hg-197m,101.18 %IA/g
same,Animal 4 (%IA/g) m: stomach,Hg-197m,0.12 %IA/g
same,Animal 4 (%IA/g) m: tail,Hg-197m,7.32 %IA/g
same,Animal 4 (%IA/g) m: urine,Hg-197m,0.04 %IA/g
same,Average Hg-197m (%IA/g): bladder,Hg-197m,0.044 %IA/g
same,Average Hg-197m (%IA/g): blood,Hg-197m,0.13 %IA/g
same,Average Hg-197m (%IA/g): bone,Hg-197m,1.68 %IA/g
same,Average Hg-197m (%IA/g): brain,Hg-197m,0.028 %IA/g
same,Average Hg-197m (%IA/g): feces,Hg-197m,0.026 %IA/g
same,Average Hg-197m (%IA/g): heart,Hg-197m,0.60 %IA/g
same,Average Hg-197m (%IA/g): kidneys,Hg-197m,3.65 %IA/g
same,Average Hg-197m (%IA/g): large intestine,Hg-197m,0.091 %IA/g
same,Average Hg-197m (%IA/g): lungs,Hg-197m,8.38 %IA/g
same,Average Hg-197m (%IA/g): muscle,Hg-197m,0.017 %IA/g
same,Average Hg-197m (%IA/g): pancreas,Hg-197m,0.056 %IA/g
same,Average Hg-197m (%IA/g): small intestine,Hg-197m,0.12 %IA/g
same,Average Hg-197m (%IA/g): spleen,Hg-197m,91.06 %IA/g
same,Average Hg-197m (%IA/g): stomach,Hg-197m,0.42 %IA/g
same,Average Hg-197m (%IA/g): tail,Hg-197m,2.77 %IA/g
same,Average Hg-197m (%IA/g): urine,Hg-197m,0.033 %IA/g
